Assay [1] addresses T1, Acetylcholinesterase (Electrophorus electricus, UniProt O42275). Briefly: Inhibition of electric eel AChE using acetylthiocholine iodide as substrate preincubated for 5 mins followed by substrate addition measured after 2 mins by spectroscopy based Ellman's method. (In general: In Ellman's method for cholinesterases, released thiocholine reacts with DTNB.)
Assay [2] has as its target T2, Amyloid-beta precursor protein (Homo sapiens, UniProt P05067). Briefly: Inhibition of HFIP-pretreated amyloid beta (1 to 42 residues) (unknown origin) self aggregation at 25 uM after 24 hrs by ThT-based fluorometric method.
In assay [3] the target is T2, Amyloid-beta precursor protein.
Description: Inhibition of HFIP-pretreated amyloid beta (1 to 42 residues) (unknown origin) self aggregation after 24 hrs by ThT-based fluorometric method
Another assay addresses Cholinesterase (Equus caballus, UniProt P81908). Briefly: Inhibition of equine serum BuChE using butyrylthiocholine iodide as substrate preincubated for 5 mins followed by substrate addition measured after 2 mins by spectroscopy based Ellman's method.
Assay [4] can be described thus: Metal chelating activity of the compound assessed as formation of Zn2+-compound complex by measuring change in red shift in maximum absorption at 50 uM after 30 mins by UV-vis spectrophotometric method (reference value: […] nanometer).
The nature of assay [5]: Metal chelating activity assessed as inhibition of Cu2+-induced amyloid beta (1 to 42 residues) aggregation at 50 uM after 24 hrs by thioflavin-T fluorescence assay.
Assay [6] in a line: (§1) Metal chelating activity of the compound assessed as formation of Cu2+-compound complex by measuring change in red shift in maximum absorption at 50 uM after 30 mins by UV-vis spectrophotometric method (reference value: […] nanometer).
The target of assay [7] is T1, Acetylcholinesterase. The assay is described as follows: Mixed-type inhibition of electric eel AChE using varying levels of acetylthiocholine iodide as substrate preincubated for 15 mins followed by substrate addition by Lineweaver-Burk plot analysis.
Assay [8] is described as follows: Metal chelating activity assessed as inhibition of Cu2+-induced amyloid beta (1 to 42 residues) aggregation by measuring reduction in amyloid fibrils at 50 uM after 24 hrs by uranyl acetate staining based transmission electron microscopic analysis.
The target of assay [9] is T2, Amyloid-beta precursor protein. Briefly: Binding affinity to amyloid beta (1 to 42) (unknown origin) assessed as decrease in beta sheet and random structure conformation at 10 uM after 12 hrs by CD spectroscopic method.
Assay [10] can be described thus: Metal chelating activity of the compound assessed as mole fraction of compound causing 1:1 stoichiometry for formation of Cu2+-compound complex at 50 uM after 30 mins by UV-vis spectrophotometric method.
Assay [11] in a line: Metal chelating activity of the compound assessed as formation of Fe2+-compound complex by measuring change in red shift in maximum absorption at 50 uM after 30 mins by UV-vis spectrophotometric method (reference value: […] nanometer).
The nature of assay [12]: as §1. The source holds these as a separate data set.
For assay [13], the target named is T2, Amyloid-beta precursor protein. The assay is described as follows: Binding affinity to amyloid beta (1 to 42) (unknown origin) assessed as increase in alpha helix conformation at 10 uM after 12 hrs by CD spectroscopic method.
Assay [14] has the same target. The assay is described as follows: Inhibition of amyloid beta (1 to 42) (unknown origin) fibril formation at 25 uM after 24 hrs by uranyl acetate staining based transmission electron microscopic method.

The results in this text go back to ChEMBL document CHEMBL4138077, “Rational design, synthesis and biological screening of triazine-triazolopyrimidine hybrids as multitarget anti-Alzheimer agents” (Eur J Med Chem, 2017).

Usually IC50 stands for the point on the concentration scale where inhibition reaches its midpoint. Low readings indicate greater potency, high ones weaker potency. A word on the inhibition: it is the drop in the measured response relative to a control, in per cent. A word on the Ki: it is the equilibrium dissociation constant of an inhibitor or competing ligand from its target. A low value points to higher affinity.

Active and inactive are the calls of the source. The rule behind the calls is not given here.

T2 sequence (P05067 whole entry, the tested form may be a part): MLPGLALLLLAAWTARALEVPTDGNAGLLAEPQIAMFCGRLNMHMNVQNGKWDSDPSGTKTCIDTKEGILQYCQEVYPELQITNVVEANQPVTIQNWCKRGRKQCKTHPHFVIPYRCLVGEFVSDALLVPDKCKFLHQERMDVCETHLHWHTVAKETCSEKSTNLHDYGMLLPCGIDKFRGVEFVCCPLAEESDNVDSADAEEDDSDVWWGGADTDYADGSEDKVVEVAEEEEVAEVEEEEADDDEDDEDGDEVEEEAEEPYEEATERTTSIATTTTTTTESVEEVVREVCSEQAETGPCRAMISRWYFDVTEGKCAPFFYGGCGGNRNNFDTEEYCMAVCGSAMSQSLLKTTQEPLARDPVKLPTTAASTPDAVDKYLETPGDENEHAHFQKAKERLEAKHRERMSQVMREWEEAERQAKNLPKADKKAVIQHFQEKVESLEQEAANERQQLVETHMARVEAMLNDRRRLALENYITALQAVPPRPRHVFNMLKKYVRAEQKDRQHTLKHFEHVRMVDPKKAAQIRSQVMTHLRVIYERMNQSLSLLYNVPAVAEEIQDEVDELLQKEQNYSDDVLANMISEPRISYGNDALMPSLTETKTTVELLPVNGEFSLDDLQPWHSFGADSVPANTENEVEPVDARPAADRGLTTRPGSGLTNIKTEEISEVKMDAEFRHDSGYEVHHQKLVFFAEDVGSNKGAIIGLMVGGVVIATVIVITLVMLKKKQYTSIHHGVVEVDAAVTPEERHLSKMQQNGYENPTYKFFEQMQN
T1 sequence (O42275 whole entry, the tested form may be a part): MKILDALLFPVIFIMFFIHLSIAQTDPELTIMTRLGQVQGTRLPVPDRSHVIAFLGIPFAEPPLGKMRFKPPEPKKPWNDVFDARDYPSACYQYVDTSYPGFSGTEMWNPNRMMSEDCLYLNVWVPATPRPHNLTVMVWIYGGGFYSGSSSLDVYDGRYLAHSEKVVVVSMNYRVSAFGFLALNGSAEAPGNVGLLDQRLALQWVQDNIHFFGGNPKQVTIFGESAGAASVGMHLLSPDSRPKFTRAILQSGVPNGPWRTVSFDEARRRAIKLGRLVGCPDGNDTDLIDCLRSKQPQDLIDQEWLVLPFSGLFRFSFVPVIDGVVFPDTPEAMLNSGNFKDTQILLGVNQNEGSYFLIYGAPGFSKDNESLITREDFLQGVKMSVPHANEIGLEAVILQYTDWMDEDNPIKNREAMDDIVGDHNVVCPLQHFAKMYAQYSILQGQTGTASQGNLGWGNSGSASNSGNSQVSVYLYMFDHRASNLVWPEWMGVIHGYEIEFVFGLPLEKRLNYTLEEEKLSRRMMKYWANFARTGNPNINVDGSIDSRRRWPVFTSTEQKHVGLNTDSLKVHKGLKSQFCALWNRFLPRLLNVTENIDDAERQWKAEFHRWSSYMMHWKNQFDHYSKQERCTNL
Sequence of Cholinesterase (P81908 whole entry): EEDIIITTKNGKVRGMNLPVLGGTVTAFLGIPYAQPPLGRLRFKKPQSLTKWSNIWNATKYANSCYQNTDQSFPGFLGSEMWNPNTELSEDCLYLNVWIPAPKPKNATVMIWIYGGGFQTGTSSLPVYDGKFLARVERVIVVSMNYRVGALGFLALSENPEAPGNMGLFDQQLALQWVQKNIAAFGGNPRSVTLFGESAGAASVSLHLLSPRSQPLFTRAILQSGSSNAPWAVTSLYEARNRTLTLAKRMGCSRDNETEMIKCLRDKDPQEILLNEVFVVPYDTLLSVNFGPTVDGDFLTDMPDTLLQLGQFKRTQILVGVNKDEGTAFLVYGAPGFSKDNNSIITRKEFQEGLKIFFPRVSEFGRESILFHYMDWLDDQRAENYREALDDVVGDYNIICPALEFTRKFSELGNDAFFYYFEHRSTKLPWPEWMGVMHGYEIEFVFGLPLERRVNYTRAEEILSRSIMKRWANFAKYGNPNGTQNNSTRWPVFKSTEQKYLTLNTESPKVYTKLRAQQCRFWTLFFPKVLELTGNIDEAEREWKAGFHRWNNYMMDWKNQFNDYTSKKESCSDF

For the compound `Cc1cc(N2CCN(c3nc(Cl)nc(Nc4ccc(F)cc4)n3)CC2)n2ncnc2n1`, the IC50 turned out to be 115 nM against Acetylcholinesterase [1], 15900 nM in assay [3] and 930 nM at Cholinesterase. For the same compound, the inhibition in [2] amounted to 64.5%.
`Cc1ccc(Nc2nc(Cl)nc(Nc3ccc(F)c(Cl)c3)n2)cc1`: the IC50 against Acetylcholinesterase [1] turned out to be 917 nM; in assay [3], 18000 nM; against Cholinesterase, 2770 nM. In addition, the inhibition in assay [2] is 62.5%.
The like results for `COc1ccc(Nc2nc(Cl)nc(Nc3ccc(F)c(Cl)c3)n2)cc1` were, in that order, 705 nM, 23800 nM, 1640 nM and 60.7%.
The like results for `Fc1ccc(Nc2nc(Cl)nc(Nc3cccc(C(F)(F)F)c3)n2)c(F)c1` were, in that order, 496 nM, 17900 nM, 4330 nM and 65.2%.
On to `Cc1cc(N2CCN(c3nc(Cl)nc(Nc4cccc(C(F)(F)F)c4)n3)CC2)n2ncnc2n1`, for which the figures for the IC50 (against Acetylcholinesterase [1]; in [3]; at Cholinesterase) were 65 nM, 10400 nM and 1880 nM, respectively. In addition, the results for the inhibition in assay [2] and in [5] were 75.3% and 69.7%, respectively. The result in [4], in assay [9], in assay [11] and in [13] was Active. For the same compound, the Activity in assay [6] was determined as 238 nm; in assay [12], 214 nm. Also, on Acetylcholinesterase [7], the Ki came to 69 nM. Moreover, the inhibition entry in assay [8] and in assay [14] was “Active” each time. The Activity (mole fraction) in assay [10] is above 0.9.
On to `Fc1ccc(Nc2nc(Cl)nc(Nc3cccc(C(F)(F)F)c3)n2)cc1Cl`, for which the figures for the IC50 on Acetylcholinesterase [1] and against Cholinesterase were 432 nM and 3980 nM, respectively. Besides, in assay [2], the inhibition was found to be 46.2%.
Take `Cc1ccc(Nc2nc(Nc3ccc(F)c(Cl)c3)nc(N3CCN(c4cc(C)nc5ncnn45)CC3)n2)cc1`: the values for the IC50 (against Acetylcholinesterase [1]; in assay [3]; against Cholinesterase) were 859 nM, 25000 nM and 3780 nM, respectively. For the same compound, the inhibition in assay [2] is 49.3%.
For the compound `COc1cc(/C=C/C(=O)CC(=O)/C=C/c2ccc(O)c(OC)c2)ccc1O`, the inhibition in assay [5] is 60.3%. For the same compound, in [14], the inhibition result is “Active”.
Consider `Cc1ccc(Nc2nc(Cl)nc(Nc3cccc(C(F)(F)F)c3)n2)cc1`, for which the values for the IC50 (on Acetylcholinesterase [1]; in assay [3]; on Cholinesterase) were 672 nM, 20700 nM and 2090 nM, respectively. In addition, the inhibition in assay [2] was found to be 64.8%.
Regarding `Cc1cc(N2CCN(c3nc(Nc4cccc(C(F)(F)F)c4)nc(NC4CC4)n3)CC2)n2ncnc2n1`, the IC50 was found to be 903 nM on Acetylcholinesterase [1] and 1900 nM on Cholinesterase. The inhibition in assay [2] is 44.3%.
With `Fc1ccc(Nc2nc(Cl)nc(Nc3cccc(C(F)(F)F)c3)n2)cc1`, the figures for the IC50 (on Acetylcholinesterase [1]; in assay [3]; against Cholinesterase) were 526 nM, 18600 nM and 2450 nM, respectively. Besides, the inhibition in assay [2] is 63%.
As for `COc1ccc(Nc2nc(Cl)nc(N3CCN(c4cc(C)nc5ncnn45)CC3)n2)cc1`, the figures for the IC50 (against Acetylcholinesterase [1]; in [3]; against Cholinesterase) were 92 nM, 11500 nM and 1520 nM, respectively. Moreover, the results for the inhibition in [2] and in assay [5] were 68.5% and 66.6%, respectively. Further, the Activity in [4] amounted to 236 nm; in assay [11], 234 nm. The same compound displayed a Ki at Acetylcholinesterase [7] of 102 nM. The inhibition entry in [8] and in assay [14] was “Active” throughout. For the same compound, the outcome in [9] and in assay [13] was Active. Moreover, the Activity (mole fraction) in assay [10] amounted to 0.96.
As for `FC(F)(F)c1cccc(Nc2nc(NC3CC3)nc(N3CCNCC3)n2)c1`, the IC50 on Acetylcholinesterase [1] is 1250 nM; in [3], 23500 nM; at Cholinesterase, 3650 nM. Further, the inhibition in [2] worked out at 58.8%.
The like results for `COc1ccc(Nc2nc(Cl)nc(Nc3cccc(C(F)(F)F)c3)n2)cc1` were, in that order, 591 nM, 17600 nM, 2960 nM and 67.2%.
The like results for `Cc1cc(N2CCN(c3nc(Nc4ccc(F)cc4)nc(Nc4cccc(C(F)(F)F)c4)n3)CC2)n2ncnc2n1` were, in that order, 724 nM, 18300 nM, 2490 nM and 54.7%.
For the compound `Cc1ccc(Nc2nc(Nc3cccc(C(F)(F)F)c3)nc(N3CCN(c4cc(C)nc5ncnn45)CC3)n2)cc1`, the IC50 at Acetylcholinesterase [1] came out at 558 nM; against Cholinesterase it was 1750 nM. In assay [2], the inhibition amounted to 22.4%.
With `Cc1cc(N2CCN(c3nc(Cl)nc(Nc4ccccc4F)n3)CC2)n2ncnc2n1`, the IC50 came to 286 nM at Acetylcholinesterase [1], 13400 nM in assay [3] and 2230 nM at Cholinesterase. Moreover, in assay [2], the inhibition is 65.8%.
The like results for `Cc1cc(N2CCN(c3nc(Nc4cccc(C(F)(F)F)c4)nc(Nc4ccc(F)c(Cl)c4)n3)CC2)n2ncnc2n1` were, in that order, 388 nM, 16300 nM, 2610 nM and 61.7%.
